Measured values: patent publication US9296741B2, “Bromodomain inhibitors” (priority 2012, dated 2016)
pEC50, pKi: −log10 of the molar value. Like-named read-outs stand apart in the source and are kept apart here.

Assays:
[1] = test system: breast cancer cell line MX-1; experiment: MX-1 cell line proliferation assay; type: cell-based, human; details: MX-1 cells, 3-day proliferation, Cell Titer Glo, read-out: Cellular proliferation: EC50
[2] = biological target: human BRD4 first bromodomain (BDI_K57-E168) (Homo sapiens (Human), UniProt O60885); experiment: TR-FRET bromodomain binding assay, BRD4 first bromodomain
[3] = biological target: human BRD4 second bromodomain (BDII_E352-M457) (Homo sapiens (Human), UniProt O60885); experiment: TR-FRET bromodomain binding assay, BRD4 second bromodomain
[4] = Rat liver microsome stability assay; type: in vitro ADME
[5] = Human liver microsome stability assay; type: in vitro ADME; details: human, microsomes, pH 7.4

Compound | pEC50 ([1]; Homo sapiens, MX1, 72 h) | pKi [2] | pKi [3] | other results
CCS(=O)(=O)N(CCN1CCCC1=O)c1ccc(Oc2ccc(F)cc2F)c(-c2cn(C)c(=O)c3[nH]ccc23)c1 [Example 344, N-[4-(2,4-difluorophenoxy)-3-(6-methyl-7-oxo-6,7-dihydro-1H-pyrrolo[2,3-c]pyridin-4-yl)phenyl]-N-[2-(2-oxopyrrolidin-1-yl)ethyl]ethanesulfonamide] | 6.20 | 6.37 | 6.87 | 
CCS(=O)(=O)c1ccc(O[C@H]2CC[C@@](C)(OC)CC2)c(-c2cn(C)c(=O)c3[nH]ccc23)c1 [Example 268, 4-(5-(ethylsulfonyl)-2-(cis-4-methoxy-4-methylcyclohexyloxy)phenyl)-6-methyl-1H-pyrrolo[2,3-c]pyridin-7(6H)-one] |  | 9.12 | 9.24 | Stability in rat liver microsomes (t1/2 in minutes) ([4]; rat, microsomes, pH 7.4): 26 min; pEC50 [1]: 8.21; Stability in human liver microsomes (t1/2 in minutes) [5]: 10 min
Cn1cc(-c2cc(S(C)(=O)=O)ccc2Oc2ccc(F)cc2F)c2cc(COc3cccnc3)[nH]c2c1=O [Example 289, 4-[2-(2,4-difluorophenoxy)-5-(methylsulfonyl)phenyl]-6-methyl-2-[(pyridin-3-yloxy)methyl]-1,6-dihydro-7H-pyrrolo[2,3-c]pyridin-7-one] | < 5.52 | 7.91 | 6.51 | 
Cn1cc(-c2cc([N+](=O)[O-])ccc2Oc2ccccc2)c2cc[nH]c2c1=O [Example 2, 6-methyl-4-(5-nitro-2-phenoxyphenyl)-1,6-dihydro-7H-pyrrolo[2,3-c]pyridin-7-one] | 6.07 | 6.28 | 6.75 | 
CCOC(=O)c1cc2c(-c3cc(N(CC)S(C)(=O)=O)ccc3Oc3ccccc3)nn(C)c(=O)c2[nH]1 [Example 76, ethyl 4-{5-[ethyl(methylsulfonyl)amino]-2-phenoxyphenyl}-6-methyl-7-oxo-6,7-dihydro-1H-pyrrolo[2,3-d]pyridazine-2-carboxylate] | 6.54 | 7.18 | 7.53 | 
CCOC(=O)c1ccc(Oc2ccccc2)c(-c2cn(C)c(=O)c3[nH]ccc23)c1 [Example 9, ethyl 3-(6-methyl-7-oxo-6,7-dihydro-1H-pyrrolo[2,3-c]pyridin-4-yl)-4-phenoxybenzoate] | 6.95 |  |  | Stability in rat liver microsomes (t1/2 in minutes) ([4]; rat liver microsomes (male Sprague-Dawley), 0.5 μM test compound, […] microsomal protein, pH 7.4, 37° C.): 1 min
COC(=O)c1cc2c(-c3ccccc3Oc3ccccc3)cn(C)c(=O)c2n1C [Example 68, methyl 1,6-dimethyl-7-oxo-4-(2-phenoxyphenyl)-6,7-dihydro-1H-pyrrolo[2,3-c]pyridine-2-carboxylate] | 5.23 | 5.77 | 5.59 | 
CCS(=O)(=O)Nc1ccc(OCc2cc(C)nn2C)c(-c2cn(C)c(=O)c3[nH]ccc23)c1 [Example 143, N-{4-[(1,3-dimethyl-1H-pyrazol-5-yl)methoxy]-3-(6-methyl-7-oxo-6,7-dihydro-1H-pyrrolo[2,3-c]pyridin-4-yl)phenyl}ethanesulfonamide] | 6.43 | 7.65 | 6.97 | 
Cn1nc(-c2cc(NS(C)(=O)=O)ccc2Oc2ccccc2)c2cc(C(=O)O)[nH]c2c1=O [Example 77, 6-methyl-4-{5-[(methylsulfonyl)amino]-2-phenoxyphenyl}-7-oxo-6,7-dihydro-1H-pyrrolo[2,3-d]pyridazine-2-carboxylic acid] | < 5.52 |  |  | 
Cn1cc(-c2cc(C(=O)N3CCS(=O)(=O)CC3)ccc2Oc2ccc(F)cc2F)c2cc[nH]c2c1=O [Example 52, 4-{2-(2,4-difluorophenoxy)-5-[(1,1-dioxidothiomorpholin-4-yl)carbonyl]phenyl}-6-methyl-1,6-dihydro-7H-pyrrolo[2,3-c]pyridin-7-one] | 6.51 |  |  | 
CCS(=O)(=O)N(CCOC)c1ccc(Oc2ccc(F)cc2F)c(-c2cn(C)c(=O)c3[nH]ccc23)c1 [Example 341, N-[4-(2,4-difluorophenoxy)-3-(6-methyl-7-oxo-6,7-dihydro-1H-pyrrolo[2,3-c]pyridin-4-yl)phenyl]-N-(2-methoxyethyl)ethanesulfonamide] | 6.21 | 6.53 | 7.09 | 
Cn1cc(-c2cc(NS(=O)(=O)CCF)ccc2Oc2ccc(C#N)cc2)c2cc[nH]c2c1=O [Example 113, N-[4-(4-cyanophenoxy)-3-(6-methyl-7-oxo-6,7-dihydro-1H-pyrrolo[2,3-c]pyridin-4-yl)phenyl]-2-fluoroethanesulfonamide] | < 5.52 | 7.32 | 6.42 | 
Cn1cc(-c2cc(N)ccc2Oc2ccccc2)c2cc[nH]c2c1=O [Example 3, 4-(5-amino-2-phenoxyphenyl)-6-methyl-1,6-dihydro-7H-pyrrolo[2,3-c]pyridin-7-one] | 6.73 |  |  | 

Second part, led by results:

pEC50 ([1]; Homo sapiens, MX1, 72 h) | pKi [2] | pKi [3] | Compound | other results
6.95 | 7.99 | 7.94 | CCN(CC)S(=O)(=O)c1cnc(OCC2CC2)c(-c2cn(C)c(=O)c3[nH]ccc23)c1 [Example 272, 6-(cyclopropylmethoxy)-N,N-diethyl-5-(6-methyl-7-oxo-6,7-dihydro-1H-pyrrolo[2,3-c]pyridin-4-yl)pyridine-3-sulfonamide] | half-life at 0.5 μM ([4]; rat liver microsomes (male Sprague-Dawley), 0.5 μM test compound, 0.25 mg/mL microsomal protein, pH 7.4, 37° C., read-out: Stability in rat liver microsomes (t1/2 in minutes)): 4 min; half-life at 0.5 μM ([5]; both sexes): 2 min
6.99 | 8.02 | 9.00 | CCNC(=O)c1cc2c(-c3cc(NS(C)(=O)=O)ccc3Oc3ccccc3)nn(C)c(=O)c2[nH]1 [Example 81, N-ethyl-6-methyl-4-{5-[(methylsulfonyl)amino]-2-phenoxyphenyl}-7-oxo-6,7-dihydro-1H-pyrrolo[2,3-d]pyridazine-2-carboxamide] | 
8.18 | 8.74 | 8.74 | Cn1cc(-c2cc(S(C)(=O)=O)ccc2OC2CCCC2)c2cc[nH]c2c1=O [Example 216, 4-[2-(cyclopentyloxy)-5-(methylsulfonyl)phenyl]-6-methyl-1,6-dihydro-7H-pyrrolo[2,3-c]pyridin-7-one] | 
7.49 |  |  | CN(C)S(=O)(=O)c1cnc(OC2CCOC2)c(-c2cn(C)c(=O)c3[nH]ccc23)c1 (centres unmarked) [Example 110, N,N-dimethyl-5-(6-methyl-7-oxo-6,7-dihydro-1H-pyrrolo[2,3-c]pyridin-4-yl)-6-(tetrahydrofuran-3-yloxy)pyridine-3-sulfonamide] | 
7.25 | 8.52 | 8.44 | Cn1cc(-c2cc(NS(C)(=O)=O)ccc2Oc2ccccc2C#N)c2cc[nH]c2c1=O [Example 25, N-[4-(2-cyanophenoxy)-3-(6-methyl-7-oxo-6,7-dihydro-1H-pyrrolo[2,3-c]pyridin-4-yl)phenyl]methanesulfonamide] | 
7.75 | 8.44 | 8.54 | Cn1cc(-c2cc(S(C)(=O)=O)ccc2OCCC2CC2)c2cc[nH]c2c1=O [Example 219, 4-[2-(2-cyclopropylethoxy)-5-(methylsulfonyl)phenyl]-6-methyl-1,6-dihydro-7H-pyrrolo[2,3-c]pyridin-7-one] | 
8.16 | 8.66 | 8.82 | CC1CCC(Oc2ccc(S(C)(=O)=O)cc2-c2cn(C)c(=O)c3[nH]ccc23)CC1 (centres unmarked) [Example 233, 6-methyl-4-{2-[(4-methylcyclohexyl)oxy]-5-(methylsulfonyl)phenyl}-1,6-dihydro-7H-pyrrolo[2,3-c]pyridin-7-one] | 
8.00 | 8.55 | 8.62 | CNS(=O)(=O)c1ccc(NCC2CC2)c(-c2cn(C)c(=O)c3[nH]ccc23)c1 [Example 239, 4-[(cyclopropylmethyl)amino]-N-methyl-3-(6-methyl-7-oxo-6,7-dihydro-1H-pyrrolo[2,3-c]pyridin-4-yl)benzenesulfonamide] | 
7.10 |  |  | Cn1cc(-c2cc(S(C)(=O)=O)ccc2Oc2cccc(Cl)c2F)c2cc[nH]c2c1=O [Example 184, 4-[2-(3-chloro-2-fluorophenoxy)-5-(methylsulfonyl)phenyl]-6-methyl-1,6-dihydro-7H-pyrrolo[2,3-c]pyridin-7-one] | 
7.77 | 8.40 | 8.17 | CCS(=O)(=O)Nc1ccc(Oc2ccc(C#N)cc2)c(-c2cn(C)c(=O)c3[nH]ccc23)c1 [Example 90, N-[4-(4-cyanophenoxy)-3-(6-methyl-7-oxo-6,7-dihydro-1H-pyrrolo[2,3-c]pyridin-4-yl)phenyl]ethanesulfonamide] | 
7.60 | 8.80 | 8.68 | Cn1cc(-c2cc(NS(C)(=O)=O)ccc2Oc2ccccc2)c2cc(CO)[nH]c2c1=O [Example 89, N-{3-[2-(hydroxymethyl)-6-methyl-7-oxo-6,7-dihydro-1H-pyrrolo[2,3-c]pyridin-4-yl]-4-phenoxyphenyl}methanesulfonamide] | 
7.12 | 7.21 | 8.27 | CN1CCC(NC(=O)c2ccc(Oc3ccc(F)cc3F)c(-c3cn(C)c(=O)c4[nH]ccc34)c2)C1=O (centres unmarked) [Example 53, 4-(2,4-difluorophenoxy)-3-(6-methyl-7-oxo-6,7-dihydro-1H-pyrrolo[2,3-c]pyridin-4-yl)-N-(1-methyl-2-oxopyrrolidin-3-yl)benzamide] | 
7.80 | 8.52 | 8.47 | Cn1cc(-c2cc(S(C)(=O)=O)ccc2OCC2CCC2)c2cc[nH]c2c1=O [Example 234, 4-[2-(cyclobutylmethoxy)-5-(methylsulfonyl)phenyl]-6-methyl-1,6-dihydro-7H-pyrrolo[2,3-c]pyridin-7-one] | 
